Data published in patent publication US20260273072A1, “NOVEL PLK1 DEGRADATION INDUCING COMPOUND” (UPPTHERA, INC., priority 2023, published 2026).
pIC50: −log10 of the molar value.

What was measured:
Type in all cases: cell-based
PLK1 = molecular target: T1, PLK1 (Homo sapiens, UniProt P53350); experiment: Luciferase assay for PLK1 in HeLa LgBit (Plk1-HiBit KI) cell line; details: 300 nM compound, luminescence after 9 hours
T1 construct: endogenous in cells; host or cells: HeLa LgBit (Plk1-HiBit KI): HeLa stably expressing LgBit, with a CRISPR/Cas9 knock-in of HiBit at the endogenous PLK1 locus
Outline: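 Compounds (300 nM) were added with Endurazine to thymidine-synchronised cells (2 mM, 24 h block, then release and 18 h culture), and luminescence at 470-480 nm was followed live. Cells: HeLa stably expressing LgBit, HiBit knocked into native PLK1 C-terminus. Value: luminescence ratio versus DMSO control.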

NCI-H526 cell line = experiment: Cell viability assay for NCI-H526 cell line (EZ-Cytox); details: Homo sapiens, NCI-H526, 120 h; H526 cells, 5 days, 3000 nM to 0.46 nM
Outline: (§1)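 IC50 values are binned (A: <30 nM, B: <50 nM, C: <100 nM, D: <200 nM, E: <400 nM) from EZ-Cytox read-outs. Cells were exposed to compound for 5 days, then shaken 3 min and absorbance taken at […].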

NCI-H69 cell line = experiment: Cell viability assay for NCI-H69 cell line (EZ-Cytox); details: Homo sapiens, NCI-H69, 120 h; H69 cells, 5 days, 3000 nM to 0.46 nM
Outline: as §1

MRC-5 cell line = experiment: Cell viability assay for MRC-5 cell line (EZ-Cytox); details: Homo sapiens, MRC5, 120 h; MRC-5 normal cell line, 5 days, 10000 nM to 1.52 nM; read-out: Activity: IC50 value, cell viability, MRC-5 cell line (Exemplary Compounds)
Experimental: 4. Cell Viability Assay for MRC-5 Cell Line
(1) Culture of MRC-5 Cell Line
The MRC-5 cell line was purchased from KCLB. Passage of cultured cells was maintained within P15.
(2) Treatment of Compounds of the Present Invention
Then, it was cultured in 37° C. CO2 incubator (Thermo Fisher Scientific) for 5 days.
(3) Cytotoxicity Experiment
CO2 incubator for 4 hours.

T1 sequence (P53350 whole entry): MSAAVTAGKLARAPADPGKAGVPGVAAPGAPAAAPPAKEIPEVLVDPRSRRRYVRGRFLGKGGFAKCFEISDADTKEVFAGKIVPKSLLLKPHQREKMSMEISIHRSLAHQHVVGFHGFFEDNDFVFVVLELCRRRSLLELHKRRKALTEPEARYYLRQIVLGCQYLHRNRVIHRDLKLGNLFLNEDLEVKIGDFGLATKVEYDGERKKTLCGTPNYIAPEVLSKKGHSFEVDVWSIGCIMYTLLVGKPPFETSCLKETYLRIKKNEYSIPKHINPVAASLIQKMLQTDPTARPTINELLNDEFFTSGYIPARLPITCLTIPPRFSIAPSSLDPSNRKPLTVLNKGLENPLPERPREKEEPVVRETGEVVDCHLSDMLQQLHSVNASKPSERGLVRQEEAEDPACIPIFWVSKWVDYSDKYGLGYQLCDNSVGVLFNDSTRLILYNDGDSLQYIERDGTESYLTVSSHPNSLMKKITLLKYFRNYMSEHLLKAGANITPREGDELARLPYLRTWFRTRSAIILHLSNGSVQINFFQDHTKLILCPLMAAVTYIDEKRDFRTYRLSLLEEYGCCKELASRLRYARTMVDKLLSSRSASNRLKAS

SMILES | Activity: ratio of the luminescence value of compound treatment group to DMSO treatment group (PLK1) | pIC50 (NCI-H526 cell line) | pIC50 (NCI-H69 cell line) | pIC50 (MRC-5 cell line)
COc1cc(C(=O)NN2CCC(CCN3CCN(c4ccc(N(C)C5CCC(=O)NC5=O)cc4F)CC3)CC2)ccc1Nc1ncc2c(n1)N(C(C)C)CC(F)(F)C(=O)N2C (stereo not shown) [Compound 38, 4-((7,7-difluoro-9-isopropyl-5-methyl-6-oxo-6,7,8,9-tetrahydro-5H-pyrimido[4,5-b][1,4]diazepin-2-yl)amino)-N-(4-(2-(4-(4-((2,6-dioxopiperidin-3-yl)(methyl)amino)-2-fluorophenyl)piperazin-1-yl)ethyl)piperidin-1-yl)-3-methoxybenzamide] | +++ (+++: <0.3) | > 7.52 | > 7.52 | < 5.00
COc1cc(C(=O)NN2CCC(CCN3CCN(c4cc(OC)c(NC5CCC(=O)NC5=O)cc4F)CC3)CC2)ccc1Nc1ncc2c(n1)N(C(C)C)CC(F)(F)C(=O)N2C (stereo not shown) [Compound 39, 4-((7,7-difluoro-9-isopropyl-5-methyl-6-oxo-6,7,8,9-tetrahydro-5H-pyrimido[4,5-b][1,4]diazepin-2-yl)amino)-N-(4-(2-(4-(4-((2,6-dioxopiperidin-3-yl)amino)-2-fluoro-5-methoxyphenyl)piperazin-1-yl)ethyl)piperidin-1-yl)-3-methoxybenzamide] | ++ (++: <0.5) | > 7.52 | > 7.52 | < 5.00
COc1cc(C(=O)NN2CCC(CCN3CCN(c4cc(OC)c(NC5CCC(=O)NC5=O)cc4F)CC3)CC2)ccc1Nc1ncc2c(n1)N(C1CCCC1)CC(F)(F)C(=O)N2C (stereo not shown) [Compound 40, 4-((9-cyclopentyl-7,7-difluoro-5-methyl-6-oxo-6,7,8,9-tetrahydro-5H-pyrimido[4,5-b][1,4]diazepin-2-yl)amino)-N-(4-(2-(4-(4-((2,6-dioxopiperidin-3-yl)amino)-2-fluoro-5-methoxyphenyl)piperazin-1-yl)ethyl)piperidin-1-yl)-3-methoxybenzamide] | +++ (+++: <0.3) | > 7.52 | > 7.52 | < 5.00
CCN1CC(F)(F)C(=O)N(C)c2cnc(Nc3ccc(C(=O)NN4CCC(CCN5CCN(c6cc(OC)c(NC7CCC(=O)NC7=O)cc6F)CC5)CC4)cc3OC)nc21 (stereo not shown) [Compound 41, N(4-(2-(4-(4-((2,6-dioxopiperidin-3-yl)amino)-2-fluoro-5-methoxyphenyl)piperazin-1-yl)ethyl)piperidin-1-yl)-4-((9-ethyl-7,7-difluoro-5-methyl-6-oxo-6,7,8,9-tetrahydro-5H-pyrimido[4,5-b][1,4]diazepin-2-yl)amino)-3-methoxybenzamide] | ++ (++: <0.5) | > 7.52 | > 7.52 | < 5.00
COc1cc(C(=O)NN2CCC(CCN3CCN(c4cc(OC)c(NC5CCC(=O)NC5=O)cc4F)CC3)CC2)c(F)cc1Nc1ncc2c(n1)N(C1CCCC1)CC(F)(F)C(=O)N2C (stereo not shown) [Compound 42, 4-((9-cyclopentyl-7,7-difluoro-5-methyl-6-oxo-6,7,8,9-tetrahydro-5H-pyrimido[4,5-b][1,4]diazepin-2-yl)amino)-N-(4-(2-(4-(4-((2,6-dioxopiperidin-3-yl)amino)-2-fluoro-5-methoxyphenyl)piperazin-1-yl)ethyl)piperidin-1-yl)-2-fluoro-5-methoxybenz amide] | ++ (++: <0.5) | > 7.52 | > 7.30 | < 5.00
COc1cc(C(=O)NN2CCC(CCN3CCN(c4cc(OC)c(NC5CCC(=O)NC5=O)cc4F)CC3)CC2)c(F)cc1Nc1ncc2c(n1)N(C(C)C)CC(F)(F)C(=O)N2C (stereo not shown) [Compound 43, 4-((7,7-difluoro-9-isopropyl-5-methyl-6-oxo-6,7,8,9-tetrahydro-5H-pyrimido[4,5-b][1,4]diazepin-2-yl)amino)-N-(4-(2-(4-(4-((2,6-dioxopiperidin-3-yl)amino)-2-fluoro-5-methoxyphenyl)piperazin-1-yl)ethyl)piperidin-1-yl)-2-fluoro-5-methoxybenzamide] | ++ (++: <0.5) | > 7.52 | > 7.52 | < 5.00

More lines, main results first:

Activity: ratio of the luminescence value of compound treatment group to DMSO treatment group (PLK1) | SMILES | pIC50 (NCI-H526 cell line) | pIC50 (NCI-H69 cell line) | pIC50 (MRC-5 cell line)
+++ (+++: <0.3) | COc1cc(N2CCN(CCC3CCN(NC(=O)c4ccc(Nc5ncc6c(n5)N(C5CCCC5)CC(F)(F)C(=O)N6C)c(OC)c4F)CC3)CC2)c(F)cc1NC1CCC(=O)NC1=O (stereo not shown) [Compound 44, 4-((9-cyclopentyl-7,7-difluoro-5-methyl-6-oxo-6,7,8,9-tetrahydro-5H-pyrimido[4,5-b][1,4]diazepin-2-yl)amino)-N-(4-(2-(4-(4-((2,6-dioxopiperidin-3-yl)amino)-2-fluoro-5-methoxyphenyl)piperazin-1-yl)ethyl)piperidin-1-yl)-2-fluoro-3-methoxybenz amide] | > 7.30 | > 7.00 | < 5.00
++ (++: <0.5) | COc1cc(N2CCN(CCC3CCN(NC(=O)c4cc(F)c(Nc5ncc6c(n5)N(C(C)C)CC(F)(F)C(=O)N6C)cc4OC)CC3)CC2)c(F)cc1NC1CCC(=O)NC1=O (stereo not shown) [Compound 45, 4-((7,7-difluoro-9-isopropyl-5-methyl-6-oxo-6,7,8,9-tetrahydro-5H-pyrimido[4,5-b][1,4]diazepin-2-yl)amino)-N-(4-(2-(4-(4-((2,6-dioxopiperidin-3-yl)amino)-2-fluoro-5-methoxyphenyl)piperazin-1-yl)ethyl)piperidin-1-yl)-5-fluoro-2-methoxybenzamide] | > 6.70 | > 6.70 | < 5.00
++ (++: <0.5) | COc1cc(C(=O)NN2CCC(CCN3CCN(c4cc(OC)c(NC5CCC(=O)NC5=O)cc4F)CC3)CC2)ncc1Nc1ncc2c(n1)N(C(C)C)CC(F)(F)C(=O)N2C (stereo not shown) [Compound 46, 5-((7,7-difluoro-9-isopropyl-5-methyl-6-oxo-8H-pyrimido[4,5-b][1,4]diazepin-2-yl)amino)-N-(4-(2-(4-(4-((2,6-dioxo-3-piperidyl)amino)-2-fluoro-5-methoxy-phenyl)piperazin-1-yl)ethyl)-1-piperidyl)-4-methoxy-pyridine-2-carboxamide] | > 7.30 | > 7.00 | < 5.00
++ (++: <0.5) | COc1cc(C(=O)NN2CCC(CCN3CCN(c4cc(OC)c(NC5CCC(=O)NC5=O)cc4F)CC3)CC2)ncc1Nc1ncc2c(n1)N(C1CCCC1)CC(F)(F)C(=O)N2C (stereo not shown) [Compound 47, 5-((9-cyclopentyl-7,7-difluoro-5-methyl-6-oxo-6,7,8,9-tetrahydro-5H-pyrimido[4,5-b][1,4]diazepin-2-yl)amino)-N-(4-(2-(4-(4-((2,6-dioxopiperidin-3-yl)amino)-2-fluoro-5-methoxyphenyl)piperazin-1-yl)ethyl)piperidin-1-yl)-4-methoxypicolinamide] | > 7.30 | > 7.30 | < 5.00
